Here are results for two compounds from article PMC6628712 (Journal of enzyme inhibition and medicinal chemistry, 2016).

Read-outs that look alike come from different tables or passages of the source.

The IC50 is the point on the concentration scale where inhibition reaches its midpoint. Usually fraction unbound stands for the share of the substance not bound to proteins or other matrix. Read a high fraction unbound as much free substance. One may read the Kd as the equilibrium constant for the complex coming apart. Read a high Kd as a looser complex.

For series [1], the system named is CYP26A1, CYP26B1 or CYP2C8. Briefly: In vitro stability of candesartan cilexetil. The class given is in vitro ADME. The conditions noted are these: 1 μM, 5 nM CYP26A1, CYP26B1 or CYP2C8, NADPH, up to 10 minutes; data not shown.
Series [2] concerns the target T1, CYP2C8 (Homo sapiens, UniProt P10632).
T1 sequence (P10632 1-490): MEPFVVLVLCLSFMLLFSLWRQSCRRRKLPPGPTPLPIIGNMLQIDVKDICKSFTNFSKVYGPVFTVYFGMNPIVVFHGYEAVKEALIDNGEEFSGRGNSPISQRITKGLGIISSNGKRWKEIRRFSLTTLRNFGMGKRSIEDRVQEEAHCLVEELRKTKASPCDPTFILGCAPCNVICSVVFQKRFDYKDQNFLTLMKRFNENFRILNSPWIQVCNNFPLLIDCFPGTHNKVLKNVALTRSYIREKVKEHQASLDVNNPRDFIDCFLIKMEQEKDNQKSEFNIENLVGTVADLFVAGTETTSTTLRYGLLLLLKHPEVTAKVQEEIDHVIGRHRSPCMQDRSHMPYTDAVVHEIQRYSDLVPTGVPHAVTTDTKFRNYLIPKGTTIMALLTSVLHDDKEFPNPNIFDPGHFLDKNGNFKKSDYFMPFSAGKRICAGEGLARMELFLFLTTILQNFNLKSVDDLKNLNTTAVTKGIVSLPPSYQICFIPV
As to conditions: read-out: CYP2C8 IC50; substrate amodiaquine; ref [51]; cited from earlier work.

Series [3] concerns the target T2, CYP26B1 (Homo sapiens, UniProt Q9NR63).
T2 sequence (Q9NR63 1-512): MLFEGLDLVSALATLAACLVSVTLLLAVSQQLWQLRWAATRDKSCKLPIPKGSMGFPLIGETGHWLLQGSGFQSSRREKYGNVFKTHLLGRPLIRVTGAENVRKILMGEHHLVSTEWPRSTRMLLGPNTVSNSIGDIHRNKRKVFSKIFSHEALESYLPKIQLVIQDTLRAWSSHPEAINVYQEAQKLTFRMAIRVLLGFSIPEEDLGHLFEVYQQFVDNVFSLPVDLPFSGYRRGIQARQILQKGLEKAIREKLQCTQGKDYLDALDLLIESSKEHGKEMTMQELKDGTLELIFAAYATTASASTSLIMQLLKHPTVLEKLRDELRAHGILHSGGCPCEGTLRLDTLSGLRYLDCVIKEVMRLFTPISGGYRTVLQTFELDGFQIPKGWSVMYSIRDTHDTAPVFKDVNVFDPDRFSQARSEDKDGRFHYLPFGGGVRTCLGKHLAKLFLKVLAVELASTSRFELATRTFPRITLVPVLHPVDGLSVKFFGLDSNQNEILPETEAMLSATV
The series can be described thus: Spectral binding determination, CYP26B1. As to conditions: for Binding mechanism, CYP26B1: UV-difference spectra.

Series [4] deals with T3, CYP26A1 (Homo sapiens, UniProt O43174).
T3 sequence (O43174 1-497): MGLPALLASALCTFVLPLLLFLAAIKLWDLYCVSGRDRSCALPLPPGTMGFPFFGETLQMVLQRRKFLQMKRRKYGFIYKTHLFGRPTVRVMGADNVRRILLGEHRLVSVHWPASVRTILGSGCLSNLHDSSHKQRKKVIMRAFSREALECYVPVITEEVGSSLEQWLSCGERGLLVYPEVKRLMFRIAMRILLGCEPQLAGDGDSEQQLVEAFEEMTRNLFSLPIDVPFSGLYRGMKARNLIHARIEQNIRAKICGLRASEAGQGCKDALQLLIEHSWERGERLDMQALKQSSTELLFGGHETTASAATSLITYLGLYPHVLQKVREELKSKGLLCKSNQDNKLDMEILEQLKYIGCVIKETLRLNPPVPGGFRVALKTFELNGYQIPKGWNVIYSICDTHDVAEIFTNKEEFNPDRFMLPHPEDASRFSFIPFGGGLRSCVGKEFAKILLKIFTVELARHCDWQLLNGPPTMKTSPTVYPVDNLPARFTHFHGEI
The series can be described thus: Inhibition of CYP26A1-catalyzed tazarotenic acid sulfoxide formation. Format: biochemical.

Series [5] has as its target T2, CYP26B1. The series can be described thus: Inhibition of CYP26B1-catalyzed tazarotenic acid sulfoxide formation. The class given is biochemical.
For series [6] the following is noted: following topical administration; ref [64]–[73]; cited from earlier work.
The target in series [7] is T1, CYP2C8. The series can be described thus: Spectral binding determination, CYP2C8. The conditions noted are these: UV-difference spectra.
In series [8] the test system is CYP26A1. As to conditions: in vitro; ref [97]; cited from earlier work.
In series [9] the test system is CYP2C8. Briefly: In vitro free fraction by rapid equilibrium dialysis. The conditions noted are these: human, pH 7.4, fu (IC50 assay), CYP2C8, conditions of CYP2C8 IC50 assay. Format: in vitro ADME. For orientation: In equilibrium dialysis free small molecules cross a membrane that holds back macromolecules.
The conditions of series [10]: human, in vivo.
For series [11] the following is noted: unbound fraction in plasma; ref [64]–[73]; cited from earlier work.
In series [12] the target is T3, CYP26A1. Briefly: Spectral binding determination, CYP26A1.
[13] abbreviates: CYP26B1 IC50, tazarotenic acid, recombinant CYP26B1, probe tazarotenic acid sulfoxide formation, ± standard error.

For `CCOc1nc2cccc(C(=O)OC(C)OC(=O)OC3CCCCC3)c2n1Cc1ccc(-c2ccccc2-c2nnn[nH]2)cc1` (centres unmarked) [Candesartan Cilexetil], in [1], the “Degradation of candesartan cilexetil” value is reported as “Minimal degradation”. The IC50 was 496 ± 190 nM in [2], 410 ± 320 nM in series [4] and 270 ± 60 nM in [5] (setting [13]). For the same compound, in series [3], the “Binding mechanism, CYP26B1” value is recorded as “No binding spectra could be obtained”.

In the case of `Clc1ccccc1C(c1ccccc1)(c1ccccc1)n1ccnc1` [Clotrimazole], the Total skin concentration in [6] is 67.3 µM. Also, in series [7], the “Binding mechanism, CYP2C8” value is “Type II”. For the same compound, the “Inhibition of CYP26A1-catalyzed 4-hydroxyretinoic acid formation” value in series [8] is reported as “not be inhibitors”. In series [9], this compound came in with a free fraction (fraction unbound) at 12 h, 1 μM of 0.155 ± 0.024. For the same compound, the dissociation constant (Kd) in [3] (Ks (spectral binding constant), CYP26B1, 500 nM protein, ± standard error) was found to be 4950 ± 640 nM; in series [3] (Ks,unb CYP26B1, Ks corrected for nonspecific binding) it was 24.7 nM; in [12] (Ks (spectral binding constant), CYP26A1, 500 nM protein, ± standard error), 533 ± 71.8 nM; in series [12] (Ks,unb CYP26A1, Ks corrected for nonspecific binding), 13.3 nM. The “Binding mechanism, CYP26B1” value in series [3] is reported as “Type II”. The IC50 is 24.7 ± 8.1 nM in [4] (CYP26A1 IC50, probe tazarotenic acid); 20 ± 10 nM in series [4] (CYP26A1 IC50, tazarotenic acid, recombinant CYP26A1, probe tazarotenic acid sulfoxide formation, ± standard error); 16.3 nM in [4] (IC50,unb CYP26A1, IC50 corrected for unbound fraction in the assay); 50.1 ± 12.1 nM in series [5] (CYP26B1 IC50, probe tazarotenic acid); 50 ± 10 nM in series [5] (setting [13]); 21.5 nM in series [5] (IC50,unb CYP26B1, IC50 corrected for unbound fraction in the assay). In series [10], the “Cmax,u (skin)” value turned out to be 6.73 µM. In addition, the “fu,plasma” value in series [11] is 0.100. Moreover, in series [12] (UV-difference spectra), the “Binding mechanism, CYP26A1” value was “Type II”.
